Data published in patent US20210369853A1, “TARGETED PROTEASE DEGRADATION PLATFORM” (EUBULUS BIOTHERAPEUTICS INC., priority 2018, published 2021).

System: Human Monocytic Leukemia MV4-11
Assay: Cell proliferation experiment (Alarm blue, 72 h, EC50)
Type: cell-based
Protocol: (2.1) Cell Proliferation Experiment:
Reagents: RPMI-1640 medium, McCoy's 5A medium, IMDM medium, MEM medium, L-15 medium, fetal bovine serum, Penicillin-Streptomycin double antibody, trypsin, etc., 2-mercaptoethanol, NEAA, pyruvate, etc.
The cells were cultured in conventional ways, and the cells should be passed at least for at least 2 generations before plating. Cells at the logarithmic growth phase are collected, prepared into single cell suspensions and counted. The concentration of cells was adjusted to the desired concentration, and cells were inoculated into a 96-well cell culture plate at 100 μl per well. 100 μL of complete medium of the test compound were added to each well, set up 2 duplicates for each concentration, and diluted with a 5-fold gradient, and continue to culture for 72 h. All cells were subjected to EC50 test for corresponding samples.
The fluorescence intensity of each well was detected using the Alarm blue method, and EC50 was calculated.
EC50 was calculated according to the following formula:
Y=Max+(Min−Max)/[1+(X/EC50)×Slope]
wherein Min, Max and Slope represent the minimum, maximum and slope respectively.

[1] = Homo sapiens, MV4-11, MV4;11 cells

| SMILES | EC50 [1] [µM] | EC50 (MV4;11 cells) [µM] |
| --- | --- | --- |
| O=C1CCC(N2Cc3c(NC(=O)CNCCOCCN4CCC(NC(=O)[C@]5(Cc6cccc(Nc7nccs7)n6)CC[C@@H](Oc6cccc(Cl)c6F)CC5)CC4)cccc3C2=O)C(=O)N1 (some centres unmarked) [UB-180736] | 0.1 to 1 |  |
| O=C1CCC(N2Cc3c(NC(=O)CCNCCOCCn4cc(CNC(=O)c5ccc(Nc6ncc7c(n6)-c6ccc(Cl)cc6C(c6c(F)cccc6F)=NC7)cc5)nn4)cccc3C2=O)C(=O)N1 (centres unmarked) [UB-180738] |  | 0.1 to 1 |
| O=C1CCC(N2Cc3c(NC(=O)CCNCCOCCn4cc(CNC(=O)[C@]5(Cc6cccc(Nc7nccs7)n6)CC[C@@H](Oc6cccc(Cl)c6F)CC5)nn4)cccc3C2=O)C(=O)N1 (some centres unmarked) [UB-180739] |  | > 1 |
| O=C1CCC(N2Cc3c(NC(=O)COCCNCCN4CCC(NC(=O)c5ccc(Nc6ncc7c(n6)-c6ccc(Cl)cc6C(c6c(F)cccc6F)=NC7)cc5)CC4)cccc3C2=O)C(=O)N1 (centres unmarked) [UB-180740] | 0.1 to 1 |  |
| O=C1CCC(N2Cc3c(NC(=O)COCCNCCN4CCC(NC(=O)[C@]5(Cc6cccc(Nc7nccs7)n6)CC[C@@H](Oc6cccc(Cl)c6F)CC5)CC4)cccc3C2=O)C(=O)N1 (some centres unmarked) [UB-180741] | > 1 |  |
| O=C1CCC(N2Cc3c(NC(=O)CNCCOCCn4cc(CNC(=O)[C@]5(Cc6cccc(Nc7nccs7)n6)CC[C@@H](Oc6cccc(Cl)c6F)CC5)nn4)cccc3C2=O)C(=O)N1 (some centres unmarked) [UB-180742] | 0.1 to 1 |  |
| O=C1CCC(N2Cc3c(NC(=O)CNCCOCCn4cc(CNC(=O)c5ccc(Nc6ncc7c(n6)-c6ccc(Cl)cc6C(c6c(F)cccc6F)=NC7)cc5)nn4)cccc3C2=O)C(=O)N1 (centres unmarked) [UB-180743] | 0.1 to 1 |  |
| O=C1CCC(N2Cc3c(NC(=O)COCCNCCn4cc(CNC(=O)[C@]5(Cc6cccc(Nc7nccs7)n6)CC[C@@H](Oc6cccc(Cl)c6F)CC5)nn4)cccc3C2=O)C(=O)N1 (some centres unmarked) [UB-180744] | 0.1 to 1 |  |
| CC[C@@H]1C(=O)N(C)c2cnc(Nc3ccc(C(=O)NC4CCN(CCOCCNCC(=O)Nc5cccc6c5CN(C5CCC(=O)NC5=O)C6=O)CC4)cc3OC)nc2N1Cc1ccc(C)s1 (some centres unmarked) [UB-180746] | 0.01 to 0.1 |  |
| CC[C@@H]1C(=O)N(C)c2cnc(Nc3ccc(C(=O)NC4CCN(CCOCCNCC(=O)Nc5cccc6c5CN(C5CCC(=O)NC5=O)C6=O)CC4)cc3OC)nc2N1Cc1ccc(C)s1 (some centres unmarked) [UB-180747] |  | 0.01 to 0.1 |
| O=C1CCC(N2Cc3c(NC(=O)CCNCCOCCn4cc(CNC(=O)c5ccc(Nc6ncc7c(n6)-c6ccc(Cl)cc6C(c6c(F)cccc6F)=NC7)cc5)nn4)cccc3C2=O)C(=O)N1 (centres unmarked) [UB-180748] |  | > 1 |
| O=C1CCC(N2Cc3c(NC(=O)CCNCCOCCn4cc(CNC(=O)[C@]5(Cc6cccc(Nc7nccs7)n6)CC[C@@H](Oc6cccc(Cl)c6F)CC5)nn4)cccc3C2=O)C(=O)N1 (some centres unmarked) [UB-180749] |  | 0.1 to 1 |
| O=C1CCC(N2Cc3c(NC(=O)CCNCCn4ncc(CNC(=O)c5ccc(Nc6ncc7c(n6)-c6ccc(Cl)cc6C(c6c(F)cccc6F)=NC7)cc5)n4)cccc3C2=O)C(=O)N1 (centres unmarked) [UB-180761] | > 1 |  |
| CC[C@@H]1C(=O)N(C)c2cnc(Nc3ccc(C(=O)NCc4cn(CCNCCOCC(=O)Nc5cccc6c5CN(C5CCC(=O)NC5=O)C6=O)nn4)cc3OC)nc2N1Cc1cc(Cl)cs1 (some centres unmarked) [UB-180763] | 0.01 to 0.1 |  |
| CC[C@@H]1C(=O)N(C)c2cnc(Nc3ccc(C(=O)NCc4cn(CCNCCOCC(=O)Nc5cccc6c5CN(C5CCC(=O)NC5=O)C6=O)nn4)cc3OC)nc2N1Cc1ccc(C)s1 (some centres unmarked) [UB-180764] | < 0.01 |  |
| CC[C@@H]1C(=O)N(C)c2cnc(Nc3ccc(C(=O)NCc4cn(CCNCCOCC(=O)Nc5cccc6c5CN(C5CCC(=O)NC5=O)C6=O)nn4)cc3OC)nc2N1Cc1ccc(C#N)s1 (some centres unmarked) [UB-180765] | 0.01 to 0.1 |  |
| CC[C@@H]1C(=O)N(C)c2cnc(Nc3ccc(C(=O)NC4CCN(CCOCCNCC(=O)Nc5cccc6c5CN(C5CCC(=O)NC5=O)C6=O)CC4)cc3OC)nc2N1Cc1cc(Cl)cs1 (some centres unmarked) [UB-180767] | 0.01 to 0.1 |  |
| O=C1CCC(N2Cc3c(NC(=O)CCOCCNCCN4CCC(NC(=O)c5ccc(Nc6ncc7c(n6)-c6ccc(Cl)cc6C(c6c(F)cccc6F)=NC7)cc5)CC4)cccc3C2=O)C(=O)N1 (centres unmarked) [UB-180768] | 0.1 to 1 |  |
| O=C1CCC(N2Cc3c(NC(=O)CCOCCNCCN4CCC(NC(=O)[C@]5(Cc6cccc(Nc7nccs7)n6)CC[C@@H](Oc6cccc(Cl)c6F)CC5)CC4)cccc3C2=O)C(=O)N1 (some centres unmarked) [UB-180769] | 0.1 to 1 |  |
| O=C1CCC(N2Cc3c(NC(=O)CCCCCNCCOCCOCCOCCNC(=O)c4ccc(Nc5ncc6c(n5)-c5ccc(Cl)cc5C(c5c(F)cccc5F)=NC6)cc4)cccc3C2=O)C(=O)N1 (centres unmarked) [UB-180770] | 0.1 to 1 |  |
| O=C1CCC(N2Cc3c(NC(=O)CCCCCNCCOCCOCCOCCNC(=O)[C@]4(Cc5cccc(Nc6nccs6)n5)CC[C@@H](Oc5cccc(Cl)c5F)CC4)cccc3C2=O)C(=O)N1 (some centres unmarked) [UB-180771] | 0.1 to 1 |  |

| SMILES | EC50 [1] [µM] | EC50 (MV4;11 cells) [µM] |
| --- | --- | --- |
| O=C1CCC(N2Cc3c(NC(=O)CCCCNCCOCCOCCOCCNC(=O)c4ccc(Nc5ncc6c(n5)-c5ccc(Cl)cc5C(c5c(F)cccc5F)=NC6)cc4)cccc3C2=O)C(=O)N1 (centres unmarked) [UB-180772] | > 1 |  |
| O=C1CCC(N2Cc3c(NC(=O)CCCNCCOCCOCCOCCNC(=O)c4ccc(Nc5ncc6c(n5)-c5ccc(Cl)cc5C(c5c(F)cccc5F)=NC6)cc4)cccc3C2=O)C(=O)N1 (centres unmarked) [UB-180773] | 0.1 to 1 |  |
| O=C1CCC(N2Cc3c(NC(=O)CCNCCn4ncc(CNC(=O)[C@]5(Cc6cccc(Nc7nccs7)n6)CC[C@@H](Oc6cccc(Cl)c6F)CC5)n4)cccc3C2=O)C(=O)N1 (some centres unmarked) [UB-180774] | 0.1 to 1 |  |
| O=C1CCC(N2Cc3c(NC(=O)CCNCCOCCN4CCC(NC(=O)c5ccc(Nc6ncc7c(n6)-c6ccc(Cl)cc6C(c6c(F)cccc6F)=NC7)cc5)CC4)cccc3C2=O)C(=O)N1 (centres unmarked) [UB-180775] | 0.1 to 1 |  |
| O=C1CCC(N2Cc3c(NC(=O)CCNCCOCCN4CCC(NC(=O)[C@]5(Cc6cccc(Nc7nccs7)n6)CC[C@@H](Oc6cccc(Cl)c6F)CC5)CC4)cccc3C2=O)C(=O)N1 (some centres unmarked) [UB-180776] | 0.1 to 1 |  |
| O=C1CCC(N2Cc3c(NC(=O)CCNCCOCCOCCNC(=O)c4ccc(Nc5ncc6c(n5)-c5ccc(Cl)cc5C(c5c(F)cccc5F)=NC6)cc4)cccc3C2=O)C(=O)N1 (centres unmarked) [UB-180777] | 0.1 to 1 |  |
| O=C1CCC(N2Cc3c(NC(=O)CCCCNCCOCCOCCOCCNC(=O)[C@]4(Cc5cccc(Nc6nccs6)n5)CC[C@@H](Oc5cccc(Cl)c5F)CC4)cccc3C2=O)C(=O)N1 (some centres unmarked) [UB-180778] | > 1 |  |
| O=C1CCC(N2Cc3c(NC(=O)CCCNCCOCCOCCOCCNC(=O)[C@]4(Cc5cccc(Nc6nccs6)n5)CC[C@@H](Oc5cccc(Cl)c5F)CC4)cccc3C2=O)C(=O)N1 (some centres unmarked) [UB-180779] | > 1 |  |
| Cc1ncsc1-c1ccc(CNC(=O)[C@@H]2C[C@@H](O)CN2C(=O)[C@@H](NC(=O)CCNCCOCCOCCOCCNC(=O)c2ccc(Nc3ncc4c(n3)-c3ccc(Cl)cc3C(c3c(F)cccc3F)=NC4)cc2)C(C)(C)C)cc1 [UB-180780] | > 1 |  |
| Cc1ncsc1-c1ccc(CNC(=O)[C@@H]2C[C@@H](O)CN2C(=O)[C@@H](NC(=O)CNCCOCCOCCOCCNC(=O)c2ccc(Nc3ncc4c(n3)-c3ccc(Cl)cc3C(c3c(F)cccc3F)=NC4)cc2)C(C)(C)C)cc1 [UB-180781] | 0.1 to 1 |  |
| Cc1ncsc1-c1ccc(CNC(=O)[C@@H]2C[C@@H](O)CN2C(=O)[C@@H](NC(=O)CCNCCOCCOCCOCCNC(=O)[C@]2(Cc3cccc(Nc4nccs4)n3)CC[C@@H](Oc3cccc(Cl)c3F)CC2)C(C)(C)C)cc1 [UB-180782] | > 1 |  |
| Cc1ncsc1-c1ccc(CNC(=O)[C@@H]2C[C@@H](O)CN2C(=O)[C@@H](NC(=O)CNCCOCCOCCOCCNC(=O)[C@]2(Cc3cccc(Nc4nccs4)n3)CC[C@@H](Oc3cccc(Cl)c3F)CC2)C(C)(C)C)cc1 [UB-180783] | > 1 |  |
| Cc1ncsc1-c1ccc(CNC(=O)[C@@H]2C[C@@H](O)CN2C(=O)[C@@H](NC(=O)CCNCCOCCn2cc(CNC(=O)c3ccc(Nc4ncc5c(n4)-c4ccc(Cl)cc4C(c4c(F)cccc4F)=NC5)cc3)nn2)C(C)(C)C)cc1 [UB-180784] | > 1 |  |
| Cc1ncsc1-c1ccc(CNC(=O)[C@@H]2C[C@@H](O)CN2C(=O)[C@@H](NC(=O)CCNCCOCCn2cc(CNC(=O)[C@]3(Cc4cccc(Nc5nccs5)n4)CC[C@@H](Oc4cccc(Cl)c4F)CC3)nn2)C(C)(C)C)cc1 [UB-180785] | > 1 |  |
| Cc1ncsc1-c1ccc(CNC(=O)[C@@H]2C[C@@H](O)CN2C(=O)[C@@H](NC(=O)CCNCCn2cc(COCCOCCNC(=O)c3ccc(Nc4ncc5c(n4)-c4ccc(Cl)cc4C(c4c(F)cccc4F)=NC5)cc3)nn2)C(C)(C)C)cc1 [UB-180786] | > 1 |  |
| Cc1ncsc1-c1ccc(CNC(=O)[C@@H]2C[C@@H](O)CN2C(=O)[C@H](NC(=O)CCCNCCn2cc(COCCOCCNC(=O)c3ccc(Nc4ncc5c(n4)-c4ccc(Cl)cc4C(c4c(F)cccc4F)=NC5)cc3)nn2)C(C)(C)C)cc1 [UB-180787] | > 1 |  |
| Cc1ncsc1-c1ccc(CNC(=O)[C@@H]2C[C@@H](O)CN2C(=O)[C@@H](NC(=O)COCCNCCn2cc(COCCOCCNC(=O)c3ccc(Nc4ncc5c(n4)-c4ccc(Cl)cc4C(c4c(F)cccc4F)=NC5)cc3)nn2)C(C)(C)C)cc1 [UB-180788] | > 1 |  |
| Cc1ncsc1-c1ccc(CNC(=O)[C@@H]2C[C@@H](O)CN2C(=O)[C@@H](NC(=O)CCNCCn2cc(COCCOCCOCCNC(=O)[C@]3(Cc4cccc(Nc5nccs5)n4)CC[C@@H](Oc4cccc(Cl)c4F)CC3)nn2)C(C)(C)C)cc1 [UB-180789] | > 1 |  |
| Cc1ncsc1-c1ccc(CNC(=O)[C@@H]2C[C@@H](O)CN2C(=O)[C@@H](NC(=O)CCCNCCn2cc(COCCOCCOCCNC(=O)[C@]3(Cc4cccc(Nc5nccs5)n4)CC[C@@H](Oc4cccc(Cl)c4F)CC3)nn2)C(C)(C)C)cc1 [UB-180790] | > 1 |  |
| Cc1ncsc1-c1ccc(CNC(=O)[C@@H]2C[C@@H](O)CN2C(=O)[C@@H](NC(=O)COCCNCCn2cc(COCCOCCOCCNC(=O)[C@]3(Cc4cccc(Nc5nccs5)n4)CC[C@@H](Oc4cccc(Cl)c4F)CC3)nn2)C(C)(C)C)cc1 [UB-180791] | > 1 |  |
